Experimental data reported in PMC12084410, “Reconstruction of the ancient cyanobacterial proto-circadian clock system KaiABC” (The EMBO Journal, 2025).

Experiments:
KaiC [1] = target: T1, KaiC (Synechococcus elongatus, UniProt Q79PF4, S229T/T240N); assay: HPLC ADP production (ATPase); format: biochemical; conditions: 1 mM ATP, 5 mM MgCl2, 150 mM NaCl, pH 8.0, 25 C
T1 construct: full-length (CI 1-268, CII 269-519), pGEX-6P-1 (GST) in E. coli BL21, purified, hexamer

KaiC [2] = target: T2, KaiC (Synechococcus elongatus, UniProt Q79PF4); assay: HPLC ADP production (ATPase); format: biochemical; conditions: 1 mM ATP, 5 mM MgCl2, 150 mM NaCl, pH 8.0, 25 C
T2 construct: full-length (CI 1-268, CII 269-519), pGEX-6P-1 (GST) in E. coli BL21, purified, hexamer
T2 sequence (Q79PF4 1-519): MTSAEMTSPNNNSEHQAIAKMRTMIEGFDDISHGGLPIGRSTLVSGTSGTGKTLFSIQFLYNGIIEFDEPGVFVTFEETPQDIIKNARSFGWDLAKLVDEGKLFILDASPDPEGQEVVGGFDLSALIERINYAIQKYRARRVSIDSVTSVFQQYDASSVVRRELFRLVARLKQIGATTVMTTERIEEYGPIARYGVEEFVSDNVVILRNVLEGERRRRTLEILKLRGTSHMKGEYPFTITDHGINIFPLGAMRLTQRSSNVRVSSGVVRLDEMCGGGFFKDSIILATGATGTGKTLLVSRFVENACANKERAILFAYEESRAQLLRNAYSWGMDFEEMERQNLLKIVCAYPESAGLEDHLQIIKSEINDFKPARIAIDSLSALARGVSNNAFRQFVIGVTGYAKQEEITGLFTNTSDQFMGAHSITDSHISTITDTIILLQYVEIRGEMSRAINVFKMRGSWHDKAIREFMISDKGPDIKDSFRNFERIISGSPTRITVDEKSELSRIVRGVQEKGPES

T1 sequence (Q79PF4 whole entry S229T/T240N): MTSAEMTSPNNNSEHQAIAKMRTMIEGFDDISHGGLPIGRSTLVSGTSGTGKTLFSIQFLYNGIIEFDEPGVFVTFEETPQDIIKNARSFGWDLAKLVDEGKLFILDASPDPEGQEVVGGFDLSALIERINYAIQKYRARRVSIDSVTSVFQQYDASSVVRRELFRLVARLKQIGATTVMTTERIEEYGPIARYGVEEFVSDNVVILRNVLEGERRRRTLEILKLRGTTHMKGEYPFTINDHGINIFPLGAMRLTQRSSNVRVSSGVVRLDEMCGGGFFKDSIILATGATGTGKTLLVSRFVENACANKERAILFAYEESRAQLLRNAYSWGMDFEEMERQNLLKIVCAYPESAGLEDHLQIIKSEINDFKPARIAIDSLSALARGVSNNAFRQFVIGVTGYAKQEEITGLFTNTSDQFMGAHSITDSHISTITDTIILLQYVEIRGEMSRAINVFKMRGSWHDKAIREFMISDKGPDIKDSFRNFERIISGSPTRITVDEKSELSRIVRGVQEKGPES

In the case of `Nc1ncnc2c1ncn2[C@@H]1O[C@H](COP(=O)(O)OP(=O)(O)OP(=O)(O)O)[C@@H](O)[C@H]1O` [ATP], the “HPLC ADP production (ATPase)” value (KaiC [1]) was “the activity of ATP hydrolysis was significantly repressed in the double mutants” and the “HPLC ADP production (ATPase)” value (KaiC [2]) was “ATPase activity of anKaiC was significantly lower than that of KaiC”.
